From ChEMBL document CHEMBL1201862, “PubChem BioAssay data set” (2004)
The source made the active and inactive calls.

Legend:
[1] = target: T1, 1-phosphatidylinositol 4,5-bisphosphate phosphodiesterase gamma-1 (Homo sapiens, UniProt P19174); assay: Counterscreen for inhibitors of phospholipase C isozymes (PLC-B3): Fluorescence-based biochemical high throughput dose response assay to identify inhibitors of phospholipase C isozymes (PLC-gamma1).
T1 sequence (P19174 whole entry): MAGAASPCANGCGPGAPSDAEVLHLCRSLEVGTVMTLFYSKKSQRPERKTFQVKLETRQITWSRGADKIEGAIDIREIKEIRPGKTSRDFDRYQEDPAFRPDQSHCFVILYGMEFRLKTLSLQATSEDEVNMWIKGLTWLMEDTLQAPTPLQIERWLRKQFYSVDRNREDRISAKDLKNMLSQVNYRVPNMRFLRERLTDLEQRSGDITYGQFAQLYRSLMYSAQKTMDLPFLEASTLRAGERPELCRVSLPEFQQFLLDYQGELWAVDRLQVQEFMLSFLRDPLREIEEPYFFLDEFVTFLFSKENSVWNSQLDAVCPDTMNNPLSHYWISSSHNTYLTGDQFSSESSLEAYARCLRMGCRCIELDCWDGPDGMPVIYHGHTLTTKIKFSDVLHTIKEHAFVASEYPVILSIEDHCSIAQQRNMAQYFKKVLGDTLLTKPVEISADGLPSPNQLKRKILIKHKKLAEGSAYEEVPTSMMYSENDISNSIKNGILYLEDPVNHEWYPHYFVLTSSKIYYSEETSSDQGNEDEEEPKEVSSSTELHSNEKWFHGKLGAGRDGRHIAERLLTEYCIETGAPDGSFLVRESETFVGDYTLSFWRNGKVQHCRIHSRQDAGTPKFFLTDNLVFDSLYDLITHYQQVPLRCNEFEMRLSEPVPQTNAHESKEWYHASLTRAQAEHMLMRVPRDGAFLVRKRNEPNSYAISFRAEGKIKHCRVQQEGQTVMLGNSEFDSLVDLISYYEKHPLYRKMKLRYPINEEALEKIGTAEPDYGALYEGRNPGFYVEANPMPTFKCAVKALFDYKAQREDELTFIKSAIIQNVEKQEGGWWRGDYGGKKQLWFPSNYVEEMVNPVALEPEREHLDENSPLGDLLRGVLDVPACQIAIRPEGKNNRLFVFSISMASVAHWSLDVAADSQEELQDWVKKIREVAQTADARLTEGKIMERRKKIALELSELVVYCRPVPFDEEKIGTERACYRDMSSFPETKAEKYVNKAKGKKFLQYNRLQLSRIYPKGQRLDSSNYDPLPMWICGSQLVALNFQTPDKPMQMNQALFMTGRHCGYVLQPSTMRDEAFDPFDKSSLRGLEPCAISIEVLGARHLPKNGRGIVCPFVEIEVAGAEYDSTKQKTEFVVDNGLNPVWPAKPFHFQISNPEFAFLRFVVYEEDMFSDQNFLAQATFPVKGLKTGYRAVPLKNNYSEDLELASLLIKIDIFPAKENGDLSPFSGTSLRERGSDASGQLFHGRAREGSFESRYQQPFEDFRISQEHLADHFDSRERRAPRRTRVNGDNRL

[2] = target: Tyrosine-protein kinase Lyn (Homo sapiens, UniProt P07948); format: functional;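 further: lyn as one member of a kinase panel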
SRSF protein kinase 1 = SRSF protein kinase 1 (Homo sapiens, UniProt Q96SB4); format: functional;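 further: measured as one member of a kinome-wide kinase profiling panel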
Aurora kinase B = Aurora kinase B (Homo sapiens, UniProt Q96GD4); format: functional
[3] = target: Mitogen-activated protein kinase 12 (Homo sapiens, UniProt P53778); format: functional;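 further: measured as one member of a kinome-wide kinase profiling panel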
[4] = target: Serine/threonine-protein kinase TBK1 (Homo sapiens, UniProt Q9UHD2); assay: Navigating the Kinome. Panel member name: TBK1; format: functional
Sequence of Serine/threonine-protein kinase TBK1 (Q9UHD2 whole entry): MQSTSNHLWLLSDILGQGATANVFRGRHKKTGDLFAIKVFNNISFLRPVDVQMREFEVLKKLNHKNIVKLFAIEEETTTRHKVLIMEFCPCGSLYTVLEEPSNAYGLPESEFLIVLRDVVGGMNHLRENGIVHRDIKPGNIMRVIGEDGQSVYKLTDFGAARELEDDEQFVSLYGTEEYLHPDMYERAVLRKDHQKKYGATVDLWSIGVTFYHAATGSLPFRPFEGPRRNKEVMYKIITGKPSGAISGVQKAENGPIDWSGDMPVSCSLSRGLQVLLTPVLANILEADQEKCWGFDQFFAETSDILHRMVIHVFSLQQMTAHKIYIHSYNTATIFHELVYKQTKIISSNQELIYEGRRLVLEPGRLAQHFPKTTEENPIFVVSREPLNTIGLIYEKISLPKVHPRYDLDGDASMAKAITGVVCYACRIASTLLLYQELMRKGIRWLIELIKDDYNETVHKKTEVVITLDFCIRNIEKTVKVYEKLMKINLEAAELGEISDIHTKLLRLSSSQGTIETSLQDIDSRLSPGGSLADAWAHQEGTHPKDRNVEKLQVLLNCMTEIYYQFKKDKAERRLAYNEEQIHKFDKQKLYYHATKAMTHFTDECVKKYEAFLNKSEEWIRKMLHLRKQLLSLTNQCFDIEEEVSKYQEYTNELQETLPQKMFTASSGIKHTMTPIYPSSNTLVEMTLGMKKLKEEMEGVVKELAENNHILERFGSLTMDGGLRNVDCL

[5] = target: Glycogen synthase kinase-3 alpha (Homo sapiens, UniProt P49840); format: functional;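 further: GSK3A result taken from a broad kinome-wide kinase panel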
Sequence of Glycogen synthase kinase-3 alpha (P49840 whole entry): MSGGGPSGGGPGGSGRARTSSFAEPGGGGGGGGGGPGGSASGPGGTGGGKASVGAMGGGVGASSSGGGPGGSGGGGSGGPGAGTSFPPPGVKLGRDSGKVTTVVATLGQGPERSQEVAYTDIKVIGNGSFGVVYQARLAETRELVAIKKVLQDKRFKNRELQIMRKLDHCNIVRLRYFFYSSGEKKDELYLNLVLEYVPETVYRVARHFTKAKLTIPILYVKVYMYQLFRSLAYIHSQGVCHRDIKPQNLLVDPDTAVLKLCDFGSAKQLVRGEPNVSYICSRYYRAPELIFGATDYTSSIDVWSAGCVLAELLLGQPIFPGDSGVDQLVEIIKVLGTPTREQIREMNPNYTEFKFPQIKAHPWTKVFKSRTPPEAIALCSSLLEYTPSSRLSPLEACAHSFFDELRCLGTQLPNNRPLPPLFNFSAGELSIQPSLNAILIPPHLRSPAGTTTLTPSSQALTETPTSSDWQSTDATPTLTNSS

[6] = target: Mitogen-activated protein kinase kinase kinase kinase 2 (Homo sapiens, UniProt Q12851); format: functional;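 further: measured as one member of a kinome-wide kinase panel, with MAP4K2 as the panel entry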
[7] = target: Testis-specific serine/threonine-protein kinase 1 (Homo sapiens, UniProt Q9BXA7); format: functional
Sequence of Testis-specific serine/threonine-protein kinase 1 (Q9BXA7 whole entry): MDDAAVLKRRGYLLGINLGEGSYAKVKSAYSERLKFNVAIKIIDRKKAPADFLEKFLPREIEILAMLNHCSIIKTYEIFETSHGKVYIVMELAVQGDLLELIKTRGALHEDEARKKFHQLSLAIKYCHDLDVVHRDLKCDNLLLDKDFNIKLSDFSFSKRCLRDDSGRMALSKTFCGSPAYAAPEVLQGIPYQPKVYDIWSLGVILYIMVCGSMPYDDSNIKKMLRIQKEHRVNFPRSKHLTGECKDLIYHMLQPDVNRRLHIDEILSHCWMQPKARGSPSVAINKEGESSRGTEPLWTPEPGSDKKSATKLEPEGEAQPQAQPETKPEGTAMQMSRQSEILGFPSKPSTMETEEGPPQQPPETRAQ

[8] = target: Mitogen-activated protein kinase 1 (Homo sapiens, UniProt P28482); format: functional
[9] = target: Calcium/calmodulin-dependent protein kinase type II subunit delta (Homo sapiens, UniProt Q13557); format: functional
[10] = target: Protein kinase C iota type (Homo sapiens, UniProt P41743); format: functional;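 further: measured within a kinome-wide kinase panel, PRKCI as panel member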
Sequence of Protein kinase C iota type (P41743 whole entry): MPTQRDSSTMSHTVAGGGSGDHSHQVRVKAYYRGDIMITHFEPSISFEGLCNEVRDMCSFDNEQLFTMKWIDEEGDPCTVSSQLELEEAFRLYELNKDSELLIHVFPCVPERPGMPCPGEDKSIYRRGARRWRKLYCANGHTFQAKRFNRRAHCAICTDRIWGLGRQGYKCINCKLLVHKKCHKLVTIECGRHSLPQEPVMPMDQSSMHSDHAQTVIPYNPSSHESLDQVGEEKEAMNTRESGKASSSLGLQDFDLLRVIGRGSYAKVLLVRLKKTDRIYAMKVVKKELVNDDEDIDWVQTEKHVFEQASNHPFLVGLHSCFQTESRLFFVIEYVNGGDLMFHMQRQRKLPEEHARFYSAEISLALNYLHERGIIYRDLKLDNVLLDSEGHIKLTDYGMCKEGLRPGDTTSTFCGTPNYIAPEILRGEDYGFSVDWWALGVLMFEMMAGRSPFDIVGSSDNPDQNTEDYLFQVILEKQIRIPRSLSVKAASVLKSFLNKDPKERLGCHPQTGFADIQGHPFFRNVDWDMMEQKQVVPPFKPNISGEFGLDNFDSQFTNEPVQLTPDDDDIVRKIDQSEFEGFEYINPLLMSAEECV

[11] = target: Cyclin-dependent kinase 5 (Homo sapiens, UniProt Q00535); format: functional;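 further: CDK5 measured as one member of a kinase profiling panel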
Sequence of Cyclin-dependent kinase 5 (Q00535 whole entry): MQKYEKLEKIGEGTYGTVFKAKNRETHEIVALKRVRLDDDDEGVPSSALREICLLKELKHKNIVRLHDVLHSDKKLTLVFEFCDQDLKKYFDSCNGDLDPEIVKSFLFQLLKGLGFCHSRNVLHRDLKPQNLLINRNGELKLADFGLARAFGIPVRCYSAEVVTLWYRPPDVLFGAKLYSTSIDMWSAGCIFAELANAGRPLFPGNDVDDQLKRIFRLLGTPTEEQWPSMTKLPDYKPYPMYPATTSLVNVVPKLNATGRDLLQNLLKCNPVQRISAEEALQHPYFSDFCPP

[12] = target: Serine/threonine-protein kinase Nek2 (Homo sapiens, UniProt P51955); format: functional
Sequence of Serine/threonine-protein kinase Nek2 (P51955 whole entry): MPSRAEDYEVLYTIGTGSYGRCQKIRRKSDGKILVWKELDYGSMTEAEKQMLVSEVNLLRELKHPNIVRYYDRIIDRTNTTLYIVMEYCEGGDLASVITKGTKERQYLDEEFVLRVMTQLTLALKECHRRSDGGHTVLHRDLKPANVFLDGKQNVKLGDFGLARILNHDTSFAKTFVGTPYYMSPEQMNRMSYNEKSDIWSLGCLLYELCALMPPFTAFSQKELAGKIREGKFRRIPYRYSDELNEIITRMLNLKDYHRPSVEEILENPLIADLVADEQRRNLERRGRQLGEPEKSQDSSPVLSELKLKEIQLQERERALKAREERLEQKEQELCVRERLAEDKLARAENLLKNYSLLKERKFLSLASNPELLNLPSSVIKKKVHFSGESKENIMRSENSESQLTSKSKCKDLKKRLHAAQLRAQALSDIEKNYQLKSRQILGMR

[13] = target: Death-associated protein kinase 3 (Homo sapiens, UniProt O43293); format: functional;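 further: measured as one member of a kinome-wide profiling panel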
[14] = target: Tyrosine-protein kinase ITK/TSK (Homo sapiens, UniProt Q08881); format: functional;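 further: affinity for ITK measured as one member of a broad kinase panel profiling binding across the kinome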
Sequence of Tyrosine-protein kinase ITK/TSK (Q08881 whole entry): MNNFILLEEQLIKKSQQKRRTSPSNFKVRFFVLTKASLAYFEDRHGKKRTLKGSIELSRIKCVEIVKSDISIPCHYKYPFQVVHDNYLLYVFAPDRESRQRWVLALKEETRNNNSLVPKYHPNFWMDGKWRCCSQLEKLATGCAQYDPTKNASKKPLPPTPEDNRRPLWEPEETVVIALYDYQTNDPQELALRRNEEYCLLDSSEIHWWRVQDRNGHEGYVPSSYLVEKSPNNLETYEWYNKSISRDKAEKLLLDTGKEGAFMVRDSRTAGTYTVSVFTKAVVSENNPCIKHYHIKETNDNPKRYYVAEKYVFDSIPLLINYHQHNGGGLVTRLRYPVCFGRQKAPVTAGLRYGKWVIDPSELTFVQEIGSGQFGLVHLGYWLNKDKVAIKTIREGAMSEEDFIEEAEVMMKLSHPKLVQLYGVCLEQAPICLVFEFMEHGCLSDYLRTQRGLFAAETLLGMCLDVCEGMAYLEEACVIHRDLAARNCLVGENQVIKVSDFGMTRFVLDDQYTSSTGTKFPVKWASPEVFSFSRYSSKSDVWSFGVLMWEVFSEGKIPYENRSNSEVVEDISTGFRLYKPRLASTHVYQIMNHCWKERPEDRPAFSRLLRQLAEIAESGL

[15] = target: Fibroblast growth factor receptor 1 (Homo sapiens, UniProt P11362); format: functional
[16] = target: Calcium/calmodulin-dependent protein kinase type 1 (Homo sapiens, UniProt Q14012); format: functional
Sequence of Calcium/calmodulin-dependent protein kinase type 1 (Q14012 whole entry): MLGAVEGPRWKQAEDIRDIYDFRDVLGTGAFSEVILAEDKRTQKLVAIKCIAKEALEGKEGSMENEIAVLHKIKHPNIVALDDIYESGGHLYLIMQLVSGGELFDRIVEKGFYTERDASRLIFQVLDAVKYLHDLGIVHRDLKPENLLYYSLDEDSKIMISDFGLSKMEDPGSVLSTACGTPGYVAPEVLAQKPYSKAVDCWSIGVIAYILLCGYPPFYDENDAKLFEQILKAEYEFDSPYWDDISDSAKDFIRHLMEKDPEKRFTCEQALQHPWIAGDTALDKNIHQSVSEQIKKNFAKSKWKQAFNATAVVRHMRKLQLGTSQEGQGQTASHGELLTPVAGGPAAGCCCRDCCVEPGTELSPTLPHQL

Activated CDC42 kinase 1 = Activated CDC42 kinase 1 (Homo sapiens, UniProt Q07912); assay: Navigating the Kinome. Panel member name: ACK1; format: functional
[17] = target: Megakaryocyte-associated tyrosine-protein kinase (Homo sapiens, UniProt P42679); format: functional;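 further: affinity measured as one member of a kinase panel (Navigating the Kinome) against MATK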
[18] = target: Protein kinase C zeta type (Homo sapiens, UniProt Q05513); format: functional;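 further: measured as one member of a broad kinase profiling panel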
[19] = target: MAP kinase-interacting serine/threonine-protein kinase 2 (Homo sapiens, UniProt Q9HBH9); format: functional
Sequence of MAP kinase-interacting serine/threonine-protein kinase 2 (Q9HBH9 whole entry): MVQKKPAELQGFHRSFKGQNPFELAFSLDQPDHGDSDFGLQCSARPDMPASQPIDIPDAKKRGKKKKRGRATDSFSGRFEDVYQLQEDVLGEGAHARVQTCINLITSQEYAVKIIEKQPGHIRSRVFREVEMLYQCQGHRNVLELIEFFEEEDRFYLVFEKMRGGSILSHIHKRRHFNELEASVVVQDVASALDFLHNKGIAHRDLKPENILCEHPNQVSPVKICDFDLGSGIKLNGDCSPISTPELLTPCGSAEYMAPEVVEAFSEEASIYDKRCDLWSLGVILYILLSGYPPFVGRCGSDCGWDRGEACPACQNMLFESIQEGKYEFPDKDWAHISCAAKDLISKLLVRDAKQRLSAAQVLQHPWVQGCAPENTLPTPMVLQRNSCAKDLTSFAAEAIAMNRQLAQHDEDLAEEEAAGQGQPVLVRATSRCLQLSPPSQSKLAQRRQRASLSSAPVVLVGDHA

[20] = target: Maternal embryonic leucine zipper kinase (Homo sapiens, UniProt Q14680); format: functional
[21] = target: High affinity nerve growth factor receptor (Homo sapiens, UniProt P04629); format: functional;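 further: NTRK1 tested as one member of a kinome-wide profiling panel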
[22] = target: Vascular endothelial growth factor receptor 2 (Homo sapiens, UniProt P35968); format: functional
[23] = target: 3-phosphoinositide-dependent protein kinase 1 (Homo sapiens, UniProt O15530); format: functional;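 further: value comes from the Navigating the Kinome panel, PDPK1 member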
[24] = target: Leucine-rich repeat serine/threonine-protein kinase 2 (Homo sapiens, UniProt Q5S007); format: functional;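 further: value from a broad kinome-wide panel profiling study in which LRRK2 was one of the kinases tested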
[25] = target: Serine/threonine-protein kinase PAK 1 (Homo sapiens, UniProt Q13153); format: functional
Sequence of Serine/threonine-protein kinase PAK 1 (Q13153 whole entry): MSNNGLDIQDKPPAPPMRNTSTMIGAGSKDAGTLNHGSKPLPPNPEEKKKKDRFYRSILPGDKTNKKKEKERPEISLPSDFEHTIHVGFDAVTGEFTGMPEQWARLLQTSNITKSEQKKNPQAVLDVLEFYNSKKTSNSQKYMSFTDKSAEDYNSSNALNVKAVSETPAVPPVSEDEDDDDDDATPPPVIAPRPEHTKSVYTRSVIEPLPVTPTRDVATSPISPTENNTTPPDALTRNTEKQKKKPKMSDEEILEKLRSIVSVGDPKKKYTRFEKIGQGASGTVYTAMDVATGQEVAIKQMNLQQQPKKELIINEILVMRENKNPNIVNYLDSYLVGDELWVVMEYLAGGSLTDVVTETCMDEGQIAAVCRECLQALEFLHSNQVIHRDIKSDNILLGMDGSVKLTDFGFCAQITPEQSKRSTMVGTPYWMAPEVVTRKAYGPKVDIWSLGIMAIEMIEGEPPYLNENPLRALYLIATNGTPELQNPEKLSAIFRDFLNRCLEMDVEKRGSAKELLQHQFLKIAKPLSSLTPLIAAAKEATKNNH

SMILES: Cc1ccc(/C=C2/C(=O)c3ccc(C(=O)O)cc3C2=O)o1
- IC50 [1]: > 122000 nM (inactive)

SMILES: Clc1cc(NC2CCCCC2)nc(-c2c[nH]c3ncccc23)n1
- Ki [2]: 631 nM (active)
- Ki (SRSF protein kinase 1): > 7940 nM (inactive)
- Ki (Aurora kinase B): 1000 nM (active)
- Ki [3]: 3980 nM (active)
- Ki [4]: > 3160 nM (inactive)
- Ki [5]: 1260 nM (active)
- Ki [6]: 398 nM (active)
- Ki [7]: 251 nM (active)
- Ki [8]: 7940 nM (active)
- Ki [9]: > 3160 nM (inactive)
- Ki [10]: 1000 nM (active)
- Ki [11]: > 3980 nM (inactive)
- Ki [12]: 6310 nM (active)
- Ki [13]: 2510 nM (active)
- Ki [14]: > 1580 nM (inactive)
- Ki [15]: > 3980 nM (inactive)
- Ki [16]: > 1000 nM (inactive)
- Ki (Activated CDC42 kinase 1): > 3980 nM (inactive)
- Ki [17]: > 2000 nM (inactive)
- Ki [18]: 1260 nM (active)
- Ki [19]: 1260 nM (active)
- Ki [20]: 316 nM (active)
- Ki [21]: > 2510 nM (inactive)
- Ki [22]: > 2000 nM (inactive)
- Ki [23]: 79.4 nM (active)
- Ki [24]: 2510 nM (active)
- Ki [25]: 1580 nM (active)
